Test results as given in patent US9789096B2, “Methods and compositions for selective and targeted cancer therapy” (Board of Regents of the University of Texas System, priority 2013, dated 2017).
Read-outs that look alike come from different tables or passages of the source.

Legend:
[1] = tested on: H1155; test: Cell viability dose-response, H1155; type: cell-based; settings: Homo sapiens, NCI-H1155
Procedure: (§1) FIG. 6A. […] Cell viability is plotted vs. compound concentration. Compound was added to cells plated at 15% confluence in 96-well plates in RPMI-1640 media supplemented with 5% Fetal Bovine Serum and 2 mM L-Glutamine. After 4 days of incubation, ATP levels were measured using Cell Titer Glo (Promega). Data are presented as the average of 2 replicates ±SEM.
(§2) Selectivity may be measured by the half maximal inhibitory concentration (IC50), which, as used herein, is a measure of the effectiveness of a compound in killing cells. This quantitative measure indicates how much of a particular compound is needed to kill a particular cell population by half (e.g., as indicated by the amount of ATP). […] The IC50 can be determined by constructing a dose-response curve. The lower the IC50, the higher the potency, and the greater the difference between IC50 values for different cell lines (e.g., sensitive lines vs. insensitive lines, and sensitive lines vs. normal lines) the greater the selectivity. […]
(§3) With this information, we synthesized and tested a series of small molecules derived in conception from the oxalamide and chromone scaffold including N-acyl ureas, as shown in Tables 6-8. Each compound was tested in a 12-point dose-response study starting at 50 micromolar and decreasing in 3-fold increments to sub-nanomolar concentrations, in duplicate. Additionally, one or more additional cell line was tested in the same way.

[2] = tested on: H2122; test: Cell viability dose-response, H2122; type: cell-based, human; settings: Homo sapiens
Procedure, shortened: (§4)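 Viability read as total ATP (Cell Titer Glo) following 4 days' compound exposure, with IC50 derived from dose-response curves. Duplicate 12-point series, top concentration 50 micromolar with 3-fold steps, on cells seeded at 15% confluence in RPMI-1640, 5% FBS, 2 mM L-glutamine.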

[3] = tested on: H1993; test: Cell viability dose-response, H1993; type: cell-based; settings: Homo sapiens, NCI-H1993
Procedure: as §1, §2, §3

[4] = tested on: HCC366; test: Cell viability dose-response, HCC366; type: cell-based; settings: Homo sapiens
Procedure: as §1, §2, §3

[5] = tested on: H460; test: Cell viability dose-response, H460; type: cell-based; settings: Homo sapiens, NCI-H460
Procedure: as §1, §2, §3

[6] = tested on: H2009; test: Cell viability dose-response, H2009; type: cell-based, human; settings: Homo sapiens, NCI-H2009
Procedure, shortened: (§5)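 Proliferation/viability determined by ATP content following 4-day incubation with test compound in RPMI-1640 + 5% serum + 2 mM glutamine. IC50 taken as the concentration halving ATP signal on the dose-response curve.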

[7] = tested on: H2073; test: Cell viability dose-response, H2073; type: cell-based, human; settings: Homo sapiens
Procedure, shortened: as §5

[8] = tested on: H1395; test: Cell viability dose-response, H1395; type: cell-based; settings: Homo sapiens, NCI-H1395
Procedure: as §1, §2, §3

[9] = tested on: H1819; test: Cell viability dose-response, H1819; type: cell-based, human; settings: Homo sapiens
Procedure, shortened: as §4

[10] = tested on: HCC95; test: Cell viability dose-response, HCC95; type: cell-based; settings: Homo sapiens
Procedure: as §1, §2, §3

[11] = tested on: HCC4017; test: Cell viability dose-response, HCC4017; type: cell-based, human; settings: Homo sapiens
Procedure: as §1, §2, §3

[12] = tested on: HBEC30KT; test: Cell viability (ATP, Cell Titer Glo, 4 days), HBEC30KT; type: cell-based, human; settings: Homo sapiens
Procedure: as §1, §2

[13] = tested on: HCC44; test: Cell viability dose-response, HCC44; type: cell-based, human; settings: Homo sapiens
Procedure, shortened: as §5

[14] = 12-point dose-response starting at 50 micromolar, 3-fold increments, in duplicate, read-out: toxicity data, H1155
[15] = NCI-H2122, 12-point dose-response starting at 50 micromolar, 3-fold increments, in duplicate, read-out: toxicity data, H2122
[16] = 12-point dose-response starting at 50 micromolar, 3-fold increments, in duplicate, read-out: toxicity data, H1993
[17] = 12-point dose-response starting at 50 micromolar, 3-fold increments, in duplicate, read-out: toxicity data, HCC366
[18] = 12-point dose-response starting at 50 micromolar, 3-fold increments, in duplicate, read-out: toxicity data, H460
[19] = 12-point dose-response starting at 50 micromolar, 3-fold increments, in duplicate, read-out: toxicity data, H2009
[20] = NCI-H2073, 12-point dose-response starting at 50 micromolar, 3-fold increments, in duplicate, read-out: toxicity data, H2073
[21] = 12-point dose-response starting at 50 micromolar, 3-fold increments, in duplicate, read-out: toxicity data, H1395
[22] = NCI-H1819, 12-point dose-response starting at 50 micromolar, 3-fold increments, in duplicate, read-out: toxicity data, H1819
[23] = 12-point dose-response starting at 50 micromolar, 3-fold increments, in duplicate, read-out: toxicity data, HCC95
[24] = HCC4017, 12-point dose-response starting at 50 micromolar, 3-fold increments, in duplicate, read-out: toxicity data, HCC4017
[25] = 12-point dose-response starting at 50 micromolar, 3-fold increments, in duplicate, read-out: toxicity data, HBEC30KT
[26] = HCC44, 12-point dose-response starting at 50 micromolar, 3-fold increments, in duplicate, read-out: toxicity data, HCC44
[27] = Tables 3 and 4, read-out: IC50 (uM) vs indicated non-small cell lung cancer cell line H1155
[28] = NCI-H2122, Tables 3 and 4, read-out: IC50 (uM) vs indicated non-small cell lung cancer cell line H2122
[29] = Tables 3 and 4, read-out: IC50 (uM) vs indicated non-small cell lung cancer cell line H1993
[30] = Tables 3 and 4, read-out: IC50 (uM) vs indicated non-small cell lung cancer cell line HCC366
[31] = NCI-H2073, Tables 3 and 4, read-out: IC50 (uM) vs indicated non-small cell lung cancer cell line H2073
[32] = Tables 3 and 4, read-out: IC50 (uM) vs indicated non-small cell lung cancer cell line H1395
[33] = NCI-H1819, Tables 3 and 4, read-out: IC50 (uM) vs indicated non-small cell lung cancer cell line H1819
[34] = Tables 3 and 4, read-out: IC50 (uM) vs indicated non-small cell lung cancer cell line HCC95
[35] = HCC4017, Tables 3 and 4, read-out: IC50 (uM) vs indicated non-small cell lung cancer cell line HCC4017
[36] = Tables 3 and 4, read-out: HBEC30KT IC50
[37] = HCC44, Tables 3 and 4, read-out: IC50 (uM) vs indicated non-small cell lung cancer cell line HCC44
[38] = Tables 3 and 4, read-out: IC50 (uM) vs indicated non-small cell lung cancer cell line H460
[39] = Tables 3 and 4, read-out: IC50 (uM) vs indicated non-small cell lung cancer cell line H2009

| SMILES | IC50 [1, 27] [µM] | IC50 [2, 28] [µM] | IC50 [3, 29] [µM] | IC50 [4, 30] [µM] | IC50 [7, 31] [µM] | IC50 [8, 32] [µM] | IC50 [9, 33] [µM] | IC50 [10, 34] [µM] | IC50 [11, 35] [µM] | IC50 [12, 36] [µM] | IC50 [13, 37] [µM] | IC50 [5, 38] [µM] | IC50 [6, 39] [µM] | also measured |
| --- | --- | --- | --- | --- | --- | --- | --- | --- | --- | --- | --- | --- | --- | --- |
| COc1ccc(CCNC(=O)C(=O)Nc2ccc(C)c(C)c2)cc1 [SW027949] | – | – | – | – | – | – | – | – | – | – | – | – | – | IC50 [1, 14]: 50 µM; IC50 [2, 15]: 0.7 µM; IC50 [3, 16]: 50 µM; IC50 [4, 17]: 50 µM; IC50 [5, 18]: 1.31 µM; IC50 [6, 19]: ≥ 50 µM; IC50 [7, 20]: ≥ 50 µM; IC50 [8, 21]: 50 µM; IC50 [9, 22]: ≥ 50 µM; IC50 [10, 23]: 0.17 µM; IC50 [11, 24]: ≥ 50 µM; IC50 [12, 25]: 41.5 µM; IC50 [13, 26]: ≥ 50 µM |
| O=C(Nc1nc2ccccc2s1)c1ccc([N+](=O)[O-])cc1 [SW003992] | 2870 | 0.14 | 524 | 1040 | 0.65 | 1580 | 358 | 2270 | 1440 | 1630 | 3500 | – | – | – |
| O=C(c1ccccc1)c1ccc(NC(=O)c2sc3ccccc3c2Cl)cc1 [SW025780] | 33 | 0.007 | 31 | 248 | 0.08 | 99 | 27 | 7.7 | 56 | 51 | 64 | 46 | 60 | – |
| O=C(Nc1nc2c(s1)CCCC2)c1ccc(Cc2ccccc2)cc1 [SW011940] | 21.7 | 0.037 | 12.7 | – | 2.63 | 35.6 | 46.3 | 5.86 | 4.26 | – | 50.6 | 2.13 | 7 | – |
| COc1ccc2nc(NC(=O)c3ccc(OCc4ccccc4)cc3)sc2c1 [SW202773-1] | 23.6 | 0.0431 | 21.7 | 41.8 | 0.268 | 25.9 | 42.9 | 0.163 | 21.1 | 24.9 | 0.122 | 0.157 | 16.6 | – |
| O=C(Nc1nc2ccccc2s1)c1cccnc1 [SW006981] | 95 | 0.26 | 21.5 | 85 | 12.5 | 51 | 50 | 110 | 76 | 272 | 63.7 | 180 | 325 | – |
| O=C(Nc1ccc(F)c(Cl)c1)c1sc2ccccc2c1Cl [SW118753] | 105 | 0.8 | 73 | 375 | 0.9 | 600 | 38 | 300 | 700 | 108 | 265 | – | 65 | – |
| O=C(Nc1nc2ccc(O)cc2s1)c1c(F)ccc(O)c1F [SW202860-1] | 49.2 | 4.05 | 35.6 | 42.6 | 18.1 | – | – | 44.9 | 47.5 | – | 15.1 | 47.8 | 41.7 | – |
| COc1ccc(CCNC(=O)C(=O)Nc2ccc(Cl)cc2)cc1 [SW027951] | – | – | – | – | – | – | – | – | – | – | – | – | – | IC50 [1, 14]: 50 µM; IC50 [2, 15]: 0.15 µM; IC50 [3, 16]: 50 µM; IC50 [4, 17]: 50 µM; IC50 [5, 18]: 1.34 µM; IC50 [6, 19]: ≥ 50 µM; IC50 [7, 20]: ≥ 50 µM; IC50 [8, 21]: 50 µM; IC50 [9, 22]: ≥ 50 µM; IC50 [10, 23]: 0.09 µM; IC50 [11, 24]: ≥ 50 µM; IC50 [12, 25]: 50 µM; IC50 [13, 26]: ≥ 50 µM |
| NC(=O)c1c(NC(=O)c2sc3ccccc3c2Cl)sc2c1CCCCC2 [SW155113] | 14.5 | 0.36 | 8.1 | 22.5 | 6 | 13.4 | 14 | 100 | 23 | 33 | 27 | 29 | 32 | – |
| O=C(Nc1nnc(C2CCCCC2)s1)c1sc2ccccc2c1Cl [SW173997] | 23.8 | 0.27 | 16.9 | 40.9 | 11.4 | 41.3 | 48.5 | 23.8 | 24 | – | 23.1 | 44.5 | 21.5 | – |
| O=C(Nc1ccccc1F)c1sc2ccccc2c1Cl [SW118094] | – | 1.05 | – | 124 | – | – | 1.21 | – | 0.322 | 34.1 | 0.09 | 0.606 | – | – |
| O=C(Nc1nc2ccccc2s1)c1ccc(-c2ccccc2)cc1 [SW001811] | 125 | 0.7 | 85 | 220 | – | 185 | 59 | 58 | 120 | 348 | 165 | 450 | 125 | – |
| Cc1cc(C)nc(SCC(=O)Nc2nc3ccccc3s2)n1 [SW053831] | 43 | 47 | 29 | 80 | 0.85 | 65 | 63 | 85 | 98 | 60 | 33 | – | 104 | – |
| O=C(Nc1nc2c(s1)CCCC2)c1ccccc1Oc1ccccc1 [SW045964] | 389 | 1 | 55.9 | 149 | 3.2 | 620 | 143 | 140 | 407 | 321 | 489 | – | 55 | – |
| O=C(c1ccc(O)cc1)c1ccc(NC(=O)c2sc3ccccc3c2Cl)cc1 [SW202856-1] | 20.4 | 33.8 | 13.6 | 40.6 | 48.4 | – | 40.2 | 12.8 | 13.3 | 6.08 | 1.06 | 44.5 | 4.76 | – |
